In publication PMC10301922, “Anti-Oxidant, Anti-Mutagenic Activity and Safety Evaluation of Antrocin” (Toxics, 2023):
Like-named read-outs stand apart in the source and are kept apart here.

What was measured:
[1] = test system: Salmonella typhimurium TA98
[2] = test system: Salmonella typhimurium TA1537; experiment: Ames test (plate incorporation), TA1537; conditions: TA1537, with S9, positive reagent 5 μg/plate
[3] = test system: Salmonella typhimurium TA1535; experiment: Ames test (plate incorporation), TA1535; conditions: TA1535, with S9, positive reagent 5 μg/plate
[4] = test system: Salmonella typhimurium TA98; experiment: Ames test (plate incorporation), TA98; conditions: TA98, with S9, positive reagent 5 μg/plate
[5] = test system: Salmonella typhimurium TA1535; experiment: Antimutagenicity test, TA1535
[6] = test system: Salmonella typhimurium TA102; experiment: Ames test (plate incorporation), TA102; conditions: TA102, with S9, positive reagent 5 μg/plate
[7] = test system: Salmonella typhimurium TA100
CHO-K1 cells = conditions: with S9 (3 h), 25 μg/mL, positive control
Protocol: A chromosomal aberration test was performed to evaluate the potential for antrocin to induce structural chromosomal abnormalities in Chinese hamster ovary cells (CHO-K1 cells). The test followed the protocol in Genetic Toxicology Testing: A Laboratory Manual. CHO-K1 cells were obtained from the Bioresource Collection and Research Center (BCRC), and were cultured in Ham F-12 medium with 10% fetal bovine serum and 0.1% Penicillin–Streptomycin at 5% CO2 in a 37 °C incubator. […] Three experimental conditions were conducted: 3 h with and without S9 (short term), and 19 h without S9 (long term). […] CHO-K1 cells were cultured in 25T flasks, incubated with samples for 3 or 19 h with and without S9, and harvested at the time of 1.5 cell cycle lengths (about 21 h). Two hours before harvesting, 100 μL colcemid (10 μg/mL) was added to disrupt cell mitosis. Collected cells were then treated with 0.6% KCl solution and fixed with acetic acid–methanol (1:3) solution. After fixation, cells were stained with Diff-Quik on a glass slide. A total of 300 cells in metaphase per group were observed, and the number of chromosomal aberrations was recorded. The chromosomal aberration rate (%) was calculated using the following formula: (number of cells with aberrations/total number of cells examined) × 100. A Student’s t-test was used for statistical analysis, and a significant increase (p < 0.05) compared to the negative control indicated a positive response.

ICR male mice = experiment: In vivo mammalian erythrocyte micronucleus test; conditions: for Mn-RETs/1000RETs (‰) / RETs/1000RBCs (‰): 60 mg/kg bw ip; for frequencies of micronuclei: positive control group (60 mg/kg ip)
Sprague Dawley rats [8] = conditions: rat, in vivo, 7.5 mg/kg
Sprague Dawley rats [9] = conditions: rat, in vivo, po, 7.5 mg/kg
Wistar rats = test system: Wistar rats; set-up: method as in earlier work; conditions: 28-day oral; cited from earlier work
Sprague Dawley rats [10] = conditions: rat, in vivo, po, 7.5 mg/kg; remark: listed apart in the source
Sprague Dawley rats [11] = conditions: rat, in vivo, po, 7.5 mg/kg; remark: listed apart in the source
[12] = female, Sprague Dawley, po, 28 days
[13] = male, Sprague Dawley, po, 28 days

SMILES: Nc1ccc2cc3ccccc3cc2c1 [2-AA, 2-aminoanthracene, reference compound]
- reverse mutants, times more than the negative control group ([1]; TA98, with S9, 25 μg/plate): about 275 times
- Number of Revertant ([1]; TA98, with S9, positive reagent alone 25 μg/plate): 6055.0 ± 661.0 Colony/Plate
- Number of Revertant [2]: 269.0 ± 21.9 Colony/Plate
- Number of Revertant [3]: 535.0 ± 138.6 Colony/Plate
- Number of Revertant [4]: 1881.3 ± 434.2 Colony/Plate
- reverse mutants, times more than the negative control group ([5]; TA1535, with S9, 25 μg/plate): about 23 times
- Number of Revertant ([5]; TA1535, with S9, positive reagent alone 25 μg/plate): 270.3 ± 7.5 Colony/Plate
- Number of Revertant [6]: 1532.0 ± 204.2 Colony/Plate
- Number of Revertant ([7]; TA100, with S9, positive reagent 5 μg/plate): 2099.7 ± 145.5 Colony/Plate

SMILES: O=P1(N(CCCl)CCCl)NCCCO1 (stereo not drawn) [Cyclophosphamide, cyclophosphamide, reference compound]
- Frequency of Chromosomal Aberration (%) (CHO-K1 cells): 15.3 ± 2.3%
- Total Aberrations (CHO-K1 cells): 46/300
- Mn-RETs/1000RETs (‰) (ICR male mice; 48 h): 22.9 ± 12.2 ‰
- RETs/1000RBCs (‰) (ICR male mice; 48 h): 3.6 ± 2.1 ‰
- frequencies of micronuclei (ICR male mice; 48 h): 3.6 ± 2.1 ‰
- Mn-RETs/1000RETs (‰) (ICR male mice; 72 h): 6.8 ± 3.7 ‰
- RETs/1000RBCs (‰) (ICR male mice; 72 h): 3.9 ± 2.1 ‰
- frequencies of micronuclei (ICR male mice; 72 h): 3.9 ± 2.1 ‰

SMILES: [N-]=[N+]=[N-].[Na+] [sodium azide, reference compound]
- reverse mutants, times more than the negative control group ([5]; TA1535, without S9, 5 μg/plate): about 122 times
- Number of Revertant ([5]; TA1535, without S9, positive reagent alone 5 μg/plate): 1313.0 ± 42.0 Colony/Plate
- Number of Revertant ([7]; TA100, without S9, positive reagent 5 μg/plate): 2223.0 ± 53.2 Colony/Plate

SMILES: CNC(=O)c1cc(Oc2ccc(NC(=O)Nc3ccc(Cl)c(C(F)(F)F)c3)cc2)ccn1 [Sorafenib, sorafenib]
- Adrenal gland: Congestion, cortex, focal, slight; incidence (Sprague Dawley rats [8]; [12]): 1/5
- Bone, femur: Hypertrophy, epiphysis, diffuse, slight to moderate/severe; incidence (Sprague Dawley rats [8]; [12]): 5/5
- Kidney: Cast, tubule, focal, slight; incidence (Sprague Dawley rats [8]; [12]): 1/5
- Kidney: Infarct, tubule, focal, slight; incidence (Sprague Dawley rats [8]; [12]): 1/5
- Ovary: Increase, follicle, multifocal, moderate to moderate/severe; incidence (Sprague Dawley rats [8]; [12]): 4/4
- Adrenal gland: Congestion, cortex, multifocal, slight; incidence (Sprague Dawley rats [8]; [13]): 1/5
- Bone marrow, femur: Hypocellularity, diffuse, slight to moderate/severe; incidence (Sprague Dawley rats [8]; [13]): 3/5
- Bone marrow, sternum: Hypocellularity, diffuse, moderate; incidence (Sprague Dawley rats [8]; [13]): 3/5
- Bone, femur: Hypertrophy, epiphysis, diffuse, slight to moderate/severe; incidence (Sprague Dawley rats [8]; [13]): 5/5
- Epididymis: Granuloma, spermatic, focal, moderate; incidence (Sprague Dawley rats [8]; [13]): 1/5
- Heart: Infiltration, mononuclear cell, focal, minimal to slight; incidence (Sprague Dawley rats [8]; [13]): 1/5
- Kidney: Cast, tubule, focal, minimal; incidence (Sprague Dawley rats [8]; [13]): 3/5
- Spleen: Atrophy, red pulp, diffuse, slight to moderate; incidence (Sprague Dawley rats [8]; [13]): 5/5
- Salivary gland, Sublingual lobe: histopathological lesions (Sprague Dawley rats [8]): -
- Aorta: histopathological lesions (Sprague Dawley rats [8]; po): -
- Cervix: histopathological lesions (Sprague Dawley rats [8]; po): -
- Coagulative gland: histopathological lesions (Sprague Dawley rats [8]; po): -
- Esophagus: histopathological lesions (Sprague Dawley rats [8]; po): -
- Eyes: histopathological lesions (Sprague Dawley rats [8]; po): -
- Harderian gland: Infiltration, mononuclear cell, focal, minimal; incidence (Sprague Dawley rats [8]; po): -
- Harderian gland: histopathological lesions (Sprague Dawley rats [8]; po): -
- Heart: histopathological lesions (Sprague Dawley rats [8]; po): -
- Intestine, large, Caecum: histopathological lesions (Sprague Dawley rats [8]; po): -
- Intestine, large, Colon: histopathological lesions (Sprague Dawley rats [8]; po): -
- Intestine, large, Rectum: histopathological lesions (Sprague Dawley rats [8]; po): -
- Intestine, small, Duodenum: histopathological lesions (Sprague Dawley rats [8]; po): -
- Intestine, small, Ileum: histopathological lesions (Sprague Dawley rats [8]; po): -
- Intestine, small, Jejunum: histopathological lesions (Sprague Dawley rats [8]; po): -
- Kidney: Cyst, tubule, focal, slight; incidence (Sprague Dawley rats [8]; po): -
- Liver: Fatty change, multifocal, slight; incidence (Sprague Dawley rats [8]; po): -
- Liver: histopathological lesions (Sprague Dawley rats [8]; po): -
- Lung: histopathological lesions (Sprague Dawley rats [8]; po): -
- Lymph node, Cervical: histopathological lesions (Sprague Dawley rats [8]; po): -
- Lymph node, Mesenteric: histopathological lesions (Sprague Dawley rats [8]; po): -
- Lymph node: histopathological lesions (Sprague Dawley rats [8]; po): -
- Mammary gland: histopathological lesions (Sprague Dawley rats [8]; po): -
- Optic nerve: histopathological lesions (Sprague Dawley rats [8]; po): -
- Oviduct: histopathological lesions (Sprague Dawley rats [8]; po): -
- Pancreas: histopathological lesions (Sprague Dawley rats [8]; po): -
- Parathyroid gland: histopathological lesions (Sprague Dawley rats [8]; po): -
- Pituitary: histopathological lesions (Sprague Dawley rats [8]; po): -
- Prostate gland: Infiltration, mononuclear cell, focal, minimal to slight; incidence (Sprague Dawley rats [8]; po): -
- Salivary gland, Mandibular lobe: histopathological lesions (Sprague Dawley rats [8]; po): -
- Salivary gland: histopathological lesions (Sprague Dawley rats [8]; po): -
- Sciatic nerve: histopathological lesions (Sprague Dawley rats [8]; po): -
- Seminal vesicle: histopathological lesions (Sprague Dawley rats [8]; po): -
- Skeletal muscle: histopathological lesions (Sprague Dawley rats [8]; po): -
- Skin: histopathological lesions (Sprague Dawley rats [8]; po): -
- Spinal cord: histopathological lesions (Sprague Dawley rats [8]; po): -
- Spleen: histopathological lesions (Sprague Dawley rats [8]; po): -
- Stomach: histopathological lesions (Sprague Dawley rats [8]; po): -
- Testis: histopathological lesions (Sprague Dawley rats [8]; po): -
- Thymus: histopathological lesions (Sprague Dawley rats [8]; po): -
- Thyroid gland: histopathological lesions (Sprague Dawley rats [8]; po): -
- Tongue: histopathological lesions (Sprague Dawley rats [8]; po): -
- Trachea: histopathological lesions (Sprague Dawley rats [8]; po): -
- Urinary bladder: histopathological lesions (Sprague Dawley rats [8]; po): -
- Uterus: histopathological lesions (Sprague Dawley rats [8]; po): -
- Vagina: histopathological lesions (Sprague Dawley rats [8]; po): -
- Brain (Sprague Dawley rats [9]): 2.0 ± 0.1 g
- dose above which abnormality was found (clinical observation, hematology, biochemistry, histopathology) (Wistar rats): above 25 mg/kg
- BASO (Sprague Dawley rats [10]): 0.1 ± 0.1%
- GGT (Sprague Dawley rats [11]): <1 U/L
- TB (Sprague Dawley rats [11]): <0.1 mg/dL
